How the values were obtained:
[1] = molecular target: T1, human serotonin re-uptake transporter (hSERT) (Homo sapiens, UniProt P31645); experiment: Serotonin uptake inhibition in HEK-293 cells expressing hSERT; format: cell-based; details: transfected HEK-293 cells; 20 nM (3H) serotonin, 30 minutes; average +/− s.e.m.; read-out: IC50 for tritiated serotonin uptake
T1 construct: host or cells: HEK-293
Description: HEK-293 cells stably expressing the human serotonin re-uptake transporter (hSERT) were obtained from R. Blakely, Vanderbilt University, USA. The cells were routinely grown in Dulbeco's Modified Eagles Medium, purchased from Bioconcept, Allschwil, Switzerland containing 10% fetal calf serum, penicillin, streptomycin, L-glutamine and the antibiotic G418 and passaged by trypsinisation. One day prior to the assay cells were seeded in the above mentioned medium. Immediately prior to the assay the medium was replaced by Krebs Ringers bicarbonate buffer, purchased from Sigma Chemicals Ltd., supplemented with 35 μM pargyline, 2.2 mM CaCl2, 1 mM ascorbic acid and 5 mM N-2-hydroxyethylpiperazine-N′-2-ethanesulfonic acid (buffer called “Hepes”). Serotonin uptake into the cells was determined by addition of radio-labeled (3H) serotonin (Amersham Biosciences GE Healthcare, Slough, UK) to a concentration of 20 nM, and incubation for 30 minutes at room temperature. Following removal of unincorporated label by gentle washing three times with the above buffer, incorporated serotonin was quantified by liquid scintillation counting.
The effect of the compounds of formula I on the serotonin uptake was determined by its inclusion in the assay at a range of concentrations between 0.03 and 100 μM for 10 minutes prior to and during the addition of (3H) serotonin/citalopram. Serotonin uptake via the transporter was inhibited by ligustilide, 3-butylphthalide, senkyunolide A, senkyunolide C, senkyunolide B, and cnidilide, respectively, in a dose dependent manner, with IC50 values as shown in Table 2.

[2] = molecular target: T2, Monoamine oxidase B (MAO-B) (Homo sapiens, UniProt P27338); experiment: Monoaminooxidase B inhibition (H2O2/vanillic acid/HRP readout); format: biochemical; details: substrate benzylamine 0.5 mM; +/− s.e.m.; read-out: IC50 [μM] for Inhibition of MAO-B
T2 sequence (P27338 1-520): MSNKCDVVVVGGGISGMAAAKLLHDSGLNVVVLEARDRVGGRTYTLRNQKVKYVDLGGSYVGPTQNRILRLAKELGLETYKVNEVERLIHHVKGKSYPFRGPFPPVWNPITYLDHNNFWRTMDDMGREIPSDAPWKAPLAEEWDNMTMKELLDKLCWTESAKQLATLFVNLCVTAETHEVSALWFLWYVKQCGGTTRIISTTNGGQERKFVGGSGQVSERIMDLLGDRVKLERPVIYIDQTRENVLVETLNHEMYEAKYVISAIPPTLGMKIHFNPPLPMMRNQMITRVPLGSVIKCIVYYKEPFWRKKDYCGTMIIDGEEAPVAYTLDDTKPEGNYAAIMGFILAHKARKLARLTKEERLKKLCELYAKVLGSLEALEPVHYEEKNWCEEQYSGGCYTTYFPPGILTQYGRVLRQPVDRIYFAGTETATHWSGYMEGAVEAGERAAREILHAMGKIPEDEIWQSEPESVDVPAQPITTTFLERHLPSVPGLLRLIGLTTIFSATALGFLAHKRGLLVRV
Description: (§1) The organic amines p-tyramine or benzylamine were used as substrates for the Monoamine oxidase A (MAO-A) and B (MAO-B) enzymes respectively. The H2O2 produced by this reaction was quantified by reaction with vanillic acid, catalysed by horse radish peroxidase (HRP).
(§2) The reactions were carried out in polystyrene microtitre plates. The MAO enzymes (final concentration 2 U/ml) were mixed with either p-tyramine (Sigma, final concentration 0.5 mM) or benzylamine (Sigma, final concentration 0.5 mM) as appropriate and the chromogenic solution (containing vanillic acid (Fluka), 4-aminoantipyrine (Fluka) and horse radish peroxidase (Sigma), final concentrations 0.25 mM, 0.125 mM and 1 U/ml respectively) in 0.2 M potassium phosphate buffer pH 7.6. The reactions were followed in a microtitre plate absorbance reader eg Spectramax M5 (Molecular Devices Corporation). Absorbance readings at 495 nm were taken every 15 seconds for 40 minutes and the initial reaction velocities calculated by linear regression using SOFTmaxPro (Molecular Devices Corporation).
(§3) The effect of ligustilide, 3-butylphthalide, senkyunolide C and cnidilide on the monoamine oxidase enzymes was determined by their inclusion in the assay at a range of concentrations between 0.03 and 100 μM for 10 minutes prior to and during the incubation with substrate. To determine the effect of the compounds on the HRP catalyzed portion of the reaction, the MAO enzyme was replaced by H2O2 (Molecular Probes, final concentration 0.2 mM). The reactions containing MAO-A and MAO-B were both inhibited by […] according to formula I in a dose dependent manner, whilst the control reaction, was unaffected. The measured IC50 values for inhibition of monoamine oxidase activity by ligustilide, 3-butylphthalide, senkyunolide C and enidilide, respectively, are shown in Table 3.

[3] = molecular target: T3, Monoamine oxidase A (MAO-A) (Homo sapiens, UniProt P21397); experiment: Monoaminooxidase A inhibition (H2O2/vanillic acid/HRP readout); format: biochemical; details: substrate p-tyramine 0.5 mM; +/− s.e.m.; read-out: IC50 [μM] for Inhibition of MAO-A
T3 sequence (P21397 1-527): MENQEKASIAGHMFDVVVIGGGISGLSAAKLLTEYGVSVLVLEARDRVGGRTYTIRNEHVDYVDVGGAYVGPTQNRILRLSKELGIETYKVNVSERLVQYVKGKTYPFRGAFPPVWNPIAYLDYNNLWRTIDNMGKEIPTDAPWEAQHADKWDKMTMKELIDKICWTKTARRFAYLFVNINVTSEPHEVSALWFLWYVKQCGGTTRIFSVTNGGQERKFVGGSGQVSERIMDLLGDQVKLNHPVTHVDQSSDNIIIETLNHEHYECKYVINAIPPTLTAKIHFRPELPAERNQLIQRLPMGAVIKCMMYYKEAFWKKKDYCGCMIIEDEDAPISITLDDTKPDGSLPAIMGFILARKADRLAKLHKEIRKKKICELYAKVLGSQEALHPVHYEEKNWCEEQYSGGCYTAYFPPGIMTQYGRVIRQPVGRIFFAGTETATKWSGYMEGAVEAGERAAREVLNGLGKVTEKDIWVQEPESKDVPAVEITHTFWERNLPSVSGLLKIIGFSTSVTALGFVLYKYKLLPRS
Description: as §1, §2, §3

mice = experiment: Marble burying test; format: in vivo, mouse; details: 10 mg/kg p.o., −24, −5, −1 h
Description: A celery seed oil extract rich in phthalides was tested in the marble burying test. A crude extract from celery seed oil (Apium graveolens) obtained by supercritical CO2 fluid extraction of the seed was bought from Guanzhou Honsea Sunshine Bio Science & Technology, Guangzhou, 510620, Peopole's Republic of China. This extract (66.15 g) was distilled for about 2 hours in a ca. 30 cm Kugelrohr at a temperature of 125° C., under a pressure of 0.02 mbar. The distillate contained 18.12% butylphthalide, 0.87% butylidenphthalide, 35.37% senkyanolide, 20.99% sedanolide, 2.23% C16-fatty acid and 3.14% oleic acid, based on the total weight of the celery seed oil extract.
The marble burying test was performed in Type II cages (16×22 cm), which were filled with normal rodent bedding material, up to a depth of 4 cm, and the bedding was flattened gently by hand to ensure an even surface. […]
At the start of the test, mice were individually placed into the test cages and left to explore for 30 min. At the end of the test, the mice were removed from the cages and the number of marbles which have been buried (i.e. at least ⅔ covered with bedding) were counted. […]
Celery seed oil extract was evaluated after sub-chronic oral administration at 50, 100, 200, 300 mg/kg with fluoxetine at 10 mg/kg as reference substance and corn oil as vehicle. […]

T1 sequence (P31645 whole entry): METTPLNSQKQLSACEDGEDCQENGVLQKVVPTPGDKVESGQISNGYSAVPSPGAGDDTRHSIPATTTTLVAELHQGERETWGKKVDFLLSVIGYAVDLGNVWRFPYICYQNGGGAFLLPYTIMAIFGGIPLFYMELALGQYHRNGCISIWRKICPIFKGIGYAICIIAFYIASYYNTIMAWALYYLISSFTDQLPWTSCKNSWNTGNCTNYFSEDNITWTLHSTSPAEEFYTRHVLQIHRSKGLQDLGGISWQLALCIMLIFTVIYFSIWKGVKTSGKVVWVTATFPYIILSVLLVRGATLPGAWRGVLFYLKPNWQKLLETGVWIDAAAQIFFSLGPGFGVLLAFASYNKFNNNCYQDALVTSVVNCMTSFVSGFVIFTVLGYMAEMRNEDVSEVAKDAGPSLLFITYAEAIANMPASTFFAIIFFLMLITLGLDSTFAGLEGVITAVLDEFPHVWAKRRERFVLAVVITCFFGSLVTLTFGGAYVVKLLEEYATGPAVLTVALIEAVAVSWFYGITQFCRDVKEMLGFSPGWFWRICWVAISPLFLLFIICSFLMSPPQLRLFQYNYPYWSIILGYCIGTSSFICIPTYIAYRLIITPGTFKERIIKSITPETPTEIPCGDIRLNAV

SMILES | IC50 [1] [µM] | IC50 [2] [µM] | IC50 [3] [µM] | % MARBLES BURIED (mice) [%]
CCCC[C@@H]1OC(=O)[C@@H]2C=CCC[C@H]12 [Cnidilide] | 40.5 | 109 | > 100 | –
CNCCC(Oc1ccc(C(F)(F)F)cc1)c1ccccc1 (stereo not drawn) [Fluoxetine] | – | – | – | −78
CCCC[C@@H]1OC(=O)C2=C1CCC=C2 [Senkyunolide A] | 32.5 | – | – | –
CCC/C=C1\OC(=O)c2c(O)cccc21 [Senkyunolide B] | 75 | – | – | –
CCC/C=C1\OC(=O)c2ccc(O)cc21 [Senkyunolide C] | 31.4 | 2.14 | 2.72 | –

Reference: patent US20100184852A1, “ORGANIC COMPOUNDS FOR TREATMENT OF DISORDERS CONNECTED TO IMPAIRED NEUROTRANSMISSION” (priority 2006, published 2010)
